This passage reports TGI and GI50 results from PubChem BioAssay (NCI).

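Test compounds were applied to cells in 96-well plates for 48 hours at 5 doses. GI50 = concentration required for 50% inhibition of growth. TGI marks complete inhibition of growth.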 A value given as a limit tells only on which side of the number the result lay.

Test systems include NCI-H23 lung; SN12C renal; NCI-H522 lung; LOX IMVI melanoma; SK-MEL-2 melanoma; OVCAR-8 ovarian; MOLT-4 leukemia; SK-OV-3 ovarian; KM12 colon; SNB-75 CNS.
What all share (assay): NCI tumour cell line growth inhibition, 48 h

As to `O=C(/C=C/c1ccccc1)CC(=O)CCC(=O)Nc1ccc(Cl)cc1`, the TGI with NCI-H23 lung, with SN12C renal, with NCI-H522 lung, with LOX IMVI melanoma, in the test with SK-MEL-2 melanoma and with OVCAR-8 ovarian was more than 100 µM throughout. Moreover, the TGI with MOLT-4 leukemia, in the test on SK-OV-3 ovarian and in the test with KM12 colon was more than 100 µM each time.
Consider `Cc1ccccc1C(=O)N1CCN(C(=O)c2ccccc2C)CC1`, for which the TGI in the test with NCI-H23 lung, in the test on SN12C renal, in the test with NCI-H522 lung, in the test on LOX IMVI melanoma, in the test with SNB-75 CNS and in the test on OVCAR-8 ovarian was more than 100 µM throughout. For the same compound, the TGI in the test with MOLT-4 leukemia, in the test on SK-OV-3 ovarian and with KM12 colon was more than 100 µM each time.
On to `O=C(N[C@@H](C[Se][Se]C[C@H](NC(=O)c1ccc(Br)cc1F)C(=O)O)C(=O)O)c1ccc(Br)cc1F`, for which the GI50 with NCI-H23 lung, with SN12C renal, in the test with NCI-H522 lung, with LOX IMVI melanoma, in the test on SNB-75 CNS and with OVCAR-8 ovarian was more than 100 µM in each case. Moreover, the GI50 in the test with MOLT-4 leukemia, with SK-OV-3 ovarian and in the test with KM12 colon was more than 100 µM in each case. Moreover, the TGI in the test on NCI-H23 lung, in the test with SN12C renal, with NCI-H522 lung, with LOX IMVI melanoma, in the test on SNB-75 CNS and in the test with OVCAR-8 ovarian was more than 100 µM throughout. Also, the TGI in the test with MOLT-4 leukemia, in the test on SK-OV-3 ovarian and in the test with KM12 colon was more than 100 µM throughout.
On to `COC(=O)C1(C(=O)OC)CC(=O)c2cc3c(cc2-c2c(cc(OC)c(OC)c2OC)C1)OCO3`, for which the TGI with NCI-H23 lung, with SN12C renal, in the test with NCI-H522 lung, with LOX IMVI melanoma, with SK-MEL-2 melanoma and with OVCAR-8 ovarian was more than 211 µM each time. Further, the TGI in the test on MOLT-4 leukemia, with SK-OV-3 ovarian and in the test on KM12 colon was more than 211 µM throughout.
Consider `CSc1nnc(COc2ccc(Cl)cc2)o1`, for which the TGI in the test with NCI-H23 lung, in the test with SN12C renal, in the test on NCI-H522 lung, with LOX IMVI melanoma, with SNB-75 CNS and in the test with OVCAR-8 ovarian was more than 100 µM in each case. Besides, the TGI in the test with SK-OV-3 ovarian and with KM12 colon was more than 100 µM throughout.
For `O=C(N/N=C/c1cccc(F)c1)c1ccncc1`, the TGI in the test with NCI-H23 lung, in the test with SN12C renal, in the test with LOX IMVI melanoma, in the test with SK-MEL-2 melanoma, with SNB-75 CNS and in the test with MOLT-4 leukemia was more than 100 µM throughout. For the same compound, the TGI in the test with SK-OV-3 ovarian and in the test with KM12 colon was more than 100 µM in each case.
For `CC1(C)CC2C(=O)c3ccccc3NC2c2ccccc21` (stereo unspecified), the TGI was more than 64.8 µM in the test with NCI-H23 lung; more than 100 µM in the test on SN12C renal; 4.49 µM with NCI-H522 lung; more than 100 µM with LOX IMVI melanoma; more than 100 µM in the test with SNB-75 CNS; more than 100 µM in the test with OVCAR-8 ovarian. In the test on KM12 colon, this compound gave a TGI of more than 81.3 µM.
For `Cc1c2ccccc2cc2ccc3oc([N+](=O)[O-])cc3c12`, the TGI with SN12C renal, in the test with LOX IMVI melanoma, with SK-MEL-2 melanoma, with SNB-75 CNS, in the test with OVCAR-8 ovarian and with MOLT-4 leukemia was more than 100 µM each time. The TGI with SK-OV-3 ovarian and in the test with KM12 colon was more than 100 µM each time.
For `NC(=S)NN/C=C(\C=Nc1ccccc1)[N+](=O)[O-]`, the TGI in the test with NCI-H23 lung, in the test with SN12C renal, with NCI-H522 lung, in the test on LOX IMVI melanoma, with SK-MEL-2 melanoma and in the test on SNB-75 CNS was more than 100 µM each time. For the same compound, the TGI in the test with OVCAR-8 ovarian and in the test with SK-OV-3 ovarian was more than 100 µM each time.
Take `O=C1CCCCN1CCCCC#Cc1cccc(C#Cc2cccnc2)c1`: the GI50 in the test on NCI-H23 lung is 17.1 µM; with SN12C renal, 14.1 µM; in the test on NCI-H522 lung, 19 µM; with LOX IMVI melanoma, 8.55 µM; in the test on SNB-75 CNS, 4.05 µM; with OVCAR-8 ovarian, 21.6 µM. The results for the GI50 with MOLT-4 leukemia, with SK-OV-3 ovarian and in the test on KM12 colon were 73.1 µM, 16.4 µM and 20.4 µM, respectively. Also, the TGI in the test on NCI-H23 lung came out at 37.7 µM; with SN12C renal, 28.5 µM; in the test on NCI-H522 lung, 63.7 µM; in the test with LOX IMVI melanoma, 25.9 µM; with SNB-75 CNS, 20.4 µM; in the test with OVCAR-8 ovarian, 67.9 µM. Also, the results for the TGI in the test on MOLT-4 leukemia, with SK-OV-3 ovarian and in the test with KM12 colon were more than 100 µM, 32.2 µM and more than 100 µM, respectively.
Regarding `COc1ccc(/C(=N\NC(=S)NN)C(c2ccc(OC)cc2)C2C(=O)Oc3ccccc32)cc1` (stereo unspecified), the GI50 in the test on NCI-H23 lung, in the test with SN12C renal, in the test on SK-MEL-2 melanoma, in the test with SNB-75 CNS, with OVCAR-8 ovarian and in the test on MOLT-4 leukemia was more than 100 µM throughout. Besides, the GI50 in the test on SK-OV-3 ovarian and in the test with KM12 colon was more than 100 µM in each case. Moreover, the TGI in the test on NCI-H23 lung, in the test with SN12C renal, in the test with NCI-H522 lung, with SK-MEL-2 melanoma, in the test on SNB-75 CNS and with OVCAR-8 ovarian was more than 100 µM throughout. In addition, the TGI in the test with MOLT-4 leukemia, with SK-OV-3 ovarian and with KM12 colon was more than 100 µM in each case.
Take `CCOC(=O)NC(=O)c1cn(CCN2CCN(C(=O)CCCCCCCCCCC(=O)N3CCN(CCn4cc(C(=O)NC(=O)OCC)c(=O)[nH]c4=O)CC3)CC2)c(=O)[nH]c1=O`: the TGI in the test with NCI-H23 lung, in the test on SN12C renal, with NCI-H522 lung, in the test on LOX IMVI melanoma, with SNB-75 CNS and with OVCAR-8 ovarian was more than 100 µM throughout. For the same compound, the TGI in the test on MOLT-4 leukemia, in the test with SK-OV-3 ovarian and in the test with KM12 colon was more than 100 µM in each case.
Turning to `O=c1cc(/C=C/c2ccccc2)[nH]c2cc3c(cc12)OCO3`, the TGI in the test on NCI-H23 lung turned out to be 13.3 µM; with SN12C renal, 23.9 µM; in the test with SK-MEL-2 melanoma, 9.11 µM; in the test with SNB-75 CNS it was 40.2 µM; with OVCAR-8 ovarian, 19.9 µM; in the test on MOLT-4 leukemia it was 13.7 µM. For the same compound, the results for the TGI in the test with SK-OV-3 ovarian and in the test with KM12 colon were 15.9 µM and 17.7 µM, respectively.
